Reference: patent publication US20050198896A1, “Novel vegetal reinforcing agent based on phytohormones for use in the cultivation of plants or agriculture, preferably in the cultivation of fruit or in wine growing” (priority 2002, published 2005)

Assays:
cherry crops = experiment: bursting of cherries after rainfall, exogenous application of ABA before rainfall; assay type: in vivo; details: variety Hedelfinger
Source text: In cherry crops it is an important problem that if it rains shortly before the harvest the cherries are capable of absorbing large quantities of water in their interior. This frequently causes them to burst so that they can no longer be utilized. Exogenous application of ABA in cherry crops before rainfall reduces the bursting of the variety Hedelfinger, for example, by up to 30%.

apples and pears = experiment: leaf abortion in apples and pears; assay type: in vivo
Source text: This makes a further treatment with a fungicide unnecessary.

chrysanthemums = experiment: frost resistance, damaged flowers after frost; assay type: in vivo; details: application about 24 hours prior to the frost
Description: Just as astonishing is the effect that exogenous application of ABA leads to frost resistance in crops, e.g. pears and apples, of adornment plants and fruit crops which has been observed. Application about 24 hours prior to the frost reduced the number of damaged flowers in chrysanthemums by 48%.

trees in fruit crops = experiment: renewed burgeoning following rain after a prolonged period of dryness; assay type: in vivo, trees in fruit crops; potatoes; details: also observed in potatoes
Source text: It has furthermore been observed that trees in fruit crops following rain after a prolonged period of dryness burgeon again. This has a negative influence on the quality of the fruit. […] This effect has also been observed in potatoes.

firs and spruces = experiment: stress-susceptibility and needle retention of Christmas trees; assay type: in vivo
sugar-beets = experiment: sugar transport from the leaves into the beet body; assay type: in vivo; details: about 2 to 3 weeks before harvest; same effect in potatoes, red beet and carrots
Source text: A further surprising inventive feature of the phytohormonal properties of ABA is the effect of promoting the protein and sugar transport in the plants from the leaves into the root(s). […] The same effect is observed in potatoes, red beet and carrots. The increase in sugar content leads to a substantial quality improvement of the harvested produce.

vine = experiment: quality enhancement in wine growing with ABA; assay type: in vivo; details: applied for several weeks prior to harvest
Source text: ABA can also be used for quality enhancement in wine growing. […] This leads to a higher density of the wine and thereby to wines with improved storage stability. Analogous effects occur in pears and apples.

grapes = experiment: GA3 in grapes compared to treatment with ethephon; assay type: in vivo
Source text: (§1) According to a further embodiment of the invention, GA3 and/or GA4/7 is/are used during the blooming period in the cultivation of […] grapes, table grapes or of grapes for special purposes, to enhance quality and as a protective measure against botrytis disease, in an application concentration of 5 to 100, preferably 5 to 50, especially 10 to 20 ppm, based on a quantity of water of 300 to 500, preferably 350 to 450 l/ha.

botrytis disease = experiment: infestation of grapes with botrytis disease; assay type: in vivo; details: loosening-up of the grapes (lengthening of the stalks)
Source text: as §1, with “l/ha. […] By contrast to conventional treatment with fungicides this happens purely mechanically/morphologically since the greater length of the stalks prevents mutual pushing away of the grapes, and damage to the grapes is thereby avoided. Such damage results in the occurrence of nest-shaped focuses of rot.” for “l/ha.”

SMILES	reduction of the bursting of cherries (cherry crops)	leaf abortion (apples and pears)	reduction of the number of damaged flowers (chrysanthemums) [%]	renewed burgeoning of the plants (trees in fruit crops)	needle retention (firs and spruces; compared with untreated trees)	stress-susceptibility (firs and spruces; firs and spruces harvested as Christmas trees)	transport of leaf sugar into the body of the beet (sugar-beets)	increase in sugar content of the grapes (vine)	reduction of the size of the grapes (vine)	density of the wine, colour and wine quality (grapes)	grape weight (grapes)	mean grape diameter (grapes)	infestation with botrytis disease (botrytis disease)
CC(C=C[C@@]1(O)C(C)=CC(=O)CC1(C)C)=CC(=O)O (stereo in doubt) [ABA, (S)-5-(1-hydroxy-2,6,6-trimethyl-4-oxo-2-cyclohexenyl)-3-methyl-cis/trans-2,4-pentadienoic acid]	up to 30%	quick leaf abortion	48	prevents renewed burgeoning of the plants	keep their needles for much longer than untreated trees	reduction of stress-susceptibility	the sugar present in the leaves is additionally transported into the body of the beet	comparable increase in sugar content	up to 10%	–	–	–	–
C=C1C[C@]23C[C@@]1(O)CC[C@H]2[C@@]12C=C[C@H](O)[C@@](C)(C(=O)O1)[C@H]2[C@@H]3C(=O)O [GA3, gibberellin A3]	–	–	–	–	–	–	–	–	–	improved	no reduction in grape weight is observed	larger	reduction in infestation with botrytis disease
